Data: patent US5912259A, “Method for treating and preventing neurodegenerative disorders by administering a thiazolidinone” (Warner-Lambert Company, priority 1998, dated 1999)

What was measured:
cyclooxygenase = details: described in U.S. Pat. No. 5,143,928; cited from earlier work
5-lipoxygenase = details: described in U.S. Pat. No. 5,143,928; cited from earlier work
NMDA-induced injury = test system: NMDA-induced injury
Procedure: Intrastriatal injections of NMDA (15 nmol/0.5 μL) were performed in male and female Sprague-Dawley rat pups (Charles River Laboratory, Portage, Mich.) on Postnatal Day (PND) 7. The animals were anesthetized with ether, and the calvarium was exposed by a midline incision through the skin. The rat pups were placed in a plaster of paris mold that was secured to a small animal stereotaxic instrument (Kopf Instruments). NMDA (Sigma) was dissolved in 0.1 M phosphate-buffered saline (PBS) adjusted to pH 7.4 with 1 N NaOH. Injections of NMDA ([…]) were placed in the middle of the right posterior corpus striatum (coordinates relative to Bregma; AP -2.0 mm, ML 2.5 mm, at a depth of 4.0 mm from the dura) with a 26-gauge Hamilton syringe. The syringe was left in place for 2 minutes following the injections to limit leakage. Temperature of the animals was kept constant after surgery in a thermostatically controlled environment (HovaBator chick incubator; BFG Corp., Savannah, Ga.) set at 35° C. to 36° C. for 1 hour after the last drug or vehicle injection. Drug solutions were prepared in PBS and injected intraperitoneally (0.05 mL volume) 15 minutes, and 2.25 hours after intrastriatal injection of NMDA. Control animals received equal volumes of PBS.
After surgery, all animals were returned to the mothers for 5 days, and decapitated on PND 12. The brains were removed, the cerebral hemispheres were separated, and wet weights of each hemisphere were determined individually. Differences of the hemispheric weights were compared for each animal using the formula: 100×(C-I/C)=percent damage, a value that indicates the severity of damage of the injected (I) cerebral hemisphere relative to that of the uninjected contralateral (C) hemisphere. Percent protection is used to indicate the relative protection of the neuroprotective compound compared to the control and was calculated as: 100×[1-(% damagetreated /% damagecontrol)]. Data were expressed as mean percent damage±S.E.M. in all groups. Independent t-tests were used for statistical comparisons.

[1] = test system: canine leptomeningeal smooth muscle cells; assay: Amyloid β-peptide-induced cytotoxicity in canine leptomeningeal smooth muscle cells; type: cell-based, dog
Source text: Canine smooth muscle cells were isolated from freshly obtained old dog meninges. […] Old dogs have an angiopathy resembling the human condition. Smooth muscle cells are the site of cerebral vessel myopathy occurring in the Dutch form of Alzheimer's disease. The compromise of these cells ultimately leads to a cerebrovascular accident and the death of some humans.
Cells from the meninges were dissociated and kept in culture in 10% fetal calf serum and Dulbecco's minimal essential media with antibiotics for about 1 week on tissue culture plates before use in biochemical studies or transferal to uncoated microscope slides for morphological studies. These smooth muscle cells represent brain blood vessel cells and they can be passaged several times. For inducing cytotoxicity, the cells were treated, in serum-free media, with 10 to 20 μM of amyloid β-peptide that was 42 amino acids long. This peptide corresponds to the human β-peptide sequence. The peptide was dissolved in water immediately before use. This small amount of protein is believed to approximate the concentration of protein observed in postmortem samples in the brains of people who died with Alzheimer's dementia.
Percentages were determined by counting normal and apoptotic nuclei in three fields with five independent measures in a fluorescence microscope.

## CC(C)(C)c1cc(C=C2SC(=N)NC2=O)cc(C(C)(C)C)c1O [5-[[3,5-bis-(1,1-dimethylethyl)-4-hydroxyphenyl]methylene]-2-imino-4-thiazolidinone]
cyclooxygenase
  inhibition of cyclooxygenase activity: inhibits the activities of both cyclooxygenase and 5-lipoxygenase
5-lipoxygenase
  inhibition of 5-lipoxygenase activity: inhibits the activities of both cyclooxygenase and 5-lipoxygenase

## CN[C@H](CC(=O)O)C(=O)O [NMDA, N-methyl-D-aspartate, reference compound]
NMDA-induced injury; NMDA 15 nmol/0.5 μL injected into posterior striatum, i.p. PBS, N=10
  reduction in wet weight of the ipsilateral cerebral hemisphere: 20.6±1.8%

## COc1ccc2c(c1)c(CC(=O)O)c(C)n2C(=O)c1ccc(Cl)cc1 [indomethacin, reference compound]
NMDA-induced injury; 2×30 mg/kg, versus thiazolidinone 2×30 mg/kg
  protection compared with the thiazolidinone: comparable

## human protein sequence: amyloid β-peptide that was 42 amino acids long; corresponds to the human β-peptide sequence [reference compound]
[1]; 10 to 20 μM amyloid β-peptide
  earliest statistically significant cytotoxicity: 24 h
[1]; 10 to 20 μM, 1-week period, serum-free media, Hoechst 33258, 10080 min
  smooth muscle cells killed apoptotically: 70% to 85
